# Measured values: ChEMBL document CHEMBL1201862, “PubChem BioAssay data set” (2004)
# Active and inactive are the calls of the source.
# Tests used:
# cells [1] = assay: cells
# Major prion protein = Major prion protein (Homo sapiens, UniProt P04156); format: functional, cell-based
# Galanin receptor type 3 = Galanin receptor type 3 (Homo sapiens, UniProt O60755); assay: Fluorescence-based cell-based primary high throughput dose response assay to identify antagonists of the Galanin Receptor 3 (GalR3).; format: functional
# Sequence of Galanin receptor type 3 (O60755 whole entry): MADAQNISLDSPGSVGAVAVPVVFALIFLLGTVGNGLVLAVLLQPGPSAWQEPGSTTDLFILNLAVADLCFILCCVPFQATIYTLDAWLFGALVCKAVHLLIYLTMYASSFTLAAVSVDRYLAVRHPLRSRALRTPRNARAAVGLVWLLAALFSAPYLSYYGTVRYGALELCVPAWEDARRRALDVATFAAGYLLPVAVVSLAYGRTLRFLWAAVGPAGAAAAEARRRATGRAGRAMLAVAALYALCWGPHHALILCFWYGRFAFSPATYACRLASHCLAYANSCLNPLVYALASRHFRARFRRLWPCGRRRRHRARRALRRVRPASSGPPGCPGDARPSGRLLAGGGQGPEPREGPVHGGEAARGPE
# cells [2] = format: functional, cell-based; details: HEK-CNG
# Orexin receptor type 2 [3] = molecular target: T1, Orexin receptor type 2 (Homo sapiens, UniProt O43614); assay: Counterscreen assay for antagonists of the orexin 1 receptor (OX1R; HCRTR1): Homogeneous Time Resolved Fluorescence (HTRF)-based cell-based dose response assay for antagonists of the orexin 2 receptor (OX2R; HCRTR2), run by assay provider.; format: functional
# T1 sequence (O43614 whole entry): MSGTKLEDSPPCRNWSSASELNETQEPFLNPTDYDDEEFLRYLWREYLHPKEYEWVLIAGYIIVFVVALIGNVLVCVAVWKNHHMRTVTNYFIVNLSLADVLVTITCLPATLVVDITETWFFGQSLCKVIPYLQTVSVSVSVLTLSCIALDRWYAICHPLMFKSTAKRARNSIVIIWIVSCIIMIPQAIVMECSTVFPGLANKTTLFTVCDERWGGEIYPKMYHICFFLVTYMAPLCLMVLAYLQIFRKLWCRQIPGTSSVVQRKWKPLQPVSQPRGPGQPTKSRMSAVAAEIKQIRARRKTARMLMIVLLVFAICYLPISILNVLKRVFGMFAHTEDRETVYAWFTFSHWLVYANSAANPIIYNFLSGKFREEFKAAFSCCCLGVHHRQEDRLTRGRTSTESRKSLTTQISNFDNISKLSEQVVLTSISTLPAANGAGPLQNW
# [4] = cytotoxicity toward NIH3T3 fibroblasts, dose response, counter-screen, cell-based, ATP luminescence, mouse fibroblasts (AID 2010); format: functional;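 also: cells exposed to compound for about 90 hours before reading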
# [5] = inhibitors of intracellular T. cruzi replication, confirmation, NIH3T3 host cells, beta-gal luminescence (AID 2044); format: functional, cell-based;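 also: intracellular parasites grown in NIH/3T3 mouse fibroblasts as host cells; luminescent beta-galactosidase reporter signal from transgenic T. cruzi replicating inside host cells; inhibitors lower the luminescence signal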
# [6] = (§1) Counterscreen for antagonists of the orexin 1 receptor (OX1R; HCRTR1): Fluorescence-based cell-based high throughput dose response assay to identify antagonists of the parental CHO cell line. [Related pubchem assays (depositor defined):AID434989, AID435008, AID463079, AID485270, AID492963, AID492964, AID492965, AID493232, AID504699, AID504701]; format: functional
# [7] = molecular target: ATP-dependent translocase ABCB1 (Homo sapiens, UniProt P08183); assay: ABCB1 efflux pump inhibitor potency, dose response, Jurkat-DNR cells, JC-1, flow cytometry (AID 1689); format: functional
# Sequence of ATP-dependent translocase ABCB1 (P08183 whole entry): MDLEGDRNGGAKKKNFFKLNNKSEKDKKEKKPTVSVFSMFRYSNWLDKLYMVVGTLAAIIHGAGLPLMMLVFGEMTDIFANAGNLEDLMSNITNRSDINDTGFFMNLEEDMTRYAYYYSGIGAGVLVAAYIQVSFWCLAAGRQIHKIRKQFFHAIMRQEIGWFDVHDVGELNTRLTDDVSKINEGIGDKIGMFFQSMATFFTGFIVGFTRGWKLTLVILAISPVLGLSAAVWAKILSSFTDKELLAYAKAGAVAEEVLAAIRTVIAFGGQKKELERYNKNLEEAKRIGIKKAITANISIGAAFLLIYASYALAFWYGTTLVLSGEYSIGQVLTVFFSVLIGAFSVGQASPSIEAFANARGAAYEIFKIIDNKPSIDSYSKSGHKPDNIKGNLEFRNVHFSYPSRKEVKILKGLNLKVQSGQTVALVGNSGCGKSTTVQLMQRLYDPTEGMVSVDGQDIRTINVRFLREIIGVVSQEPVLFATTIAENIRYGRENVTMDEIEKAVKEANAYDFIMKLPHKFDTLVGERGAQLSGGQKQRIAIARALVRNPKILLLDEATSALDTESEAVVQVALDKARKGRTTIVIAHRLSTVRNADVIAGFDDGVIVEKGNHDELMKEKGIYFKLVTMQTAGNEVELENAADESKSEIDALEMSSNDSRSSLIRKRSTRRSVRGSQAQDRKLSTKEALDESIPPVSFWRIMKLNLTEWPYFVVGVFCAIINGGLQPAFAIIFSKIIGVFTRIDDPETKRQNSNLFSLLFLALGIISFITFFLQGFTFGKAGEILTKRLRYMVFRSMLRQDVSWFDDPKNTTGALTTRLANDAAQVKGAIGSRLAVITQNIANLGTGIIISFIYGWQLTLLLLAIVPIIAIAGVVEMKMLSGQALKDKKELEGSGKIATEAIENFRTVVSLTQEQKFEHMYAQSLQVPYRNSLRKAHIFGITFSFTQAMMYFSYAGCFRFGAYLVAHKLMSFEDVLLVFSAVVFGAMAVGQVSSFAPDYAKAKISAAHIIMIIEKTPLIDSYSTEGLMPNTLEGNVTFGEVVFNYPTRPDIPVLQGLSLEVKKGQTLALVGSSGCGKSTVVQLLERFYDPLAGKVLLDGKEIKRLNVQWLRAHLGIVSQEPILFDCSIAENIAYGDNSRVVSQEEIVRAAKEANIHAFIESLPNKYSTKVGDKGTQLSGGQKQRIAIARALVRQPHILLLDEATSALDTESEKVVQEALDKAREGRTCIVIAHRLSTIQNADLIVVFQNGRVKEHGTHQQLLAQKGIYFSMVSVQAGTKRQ
# [8] = molecular target: T2, Orexin/Hypocretin receptor type 1 (Homo sapiens, UniProt O43613); assay: (§2) Fluorescence-based cell-based high throughput dose response assay for antagonists of the orexin 1 receptor (OX1R; HCRTR1). [Related pubchem assays (depositor defined):AID434989, AID435008, AID463079, AID485270, AID492963, AID492964, AID492965, AID493232, AID504717, AID504718]; format: functional
# T2 sequence (O43613 whole entry): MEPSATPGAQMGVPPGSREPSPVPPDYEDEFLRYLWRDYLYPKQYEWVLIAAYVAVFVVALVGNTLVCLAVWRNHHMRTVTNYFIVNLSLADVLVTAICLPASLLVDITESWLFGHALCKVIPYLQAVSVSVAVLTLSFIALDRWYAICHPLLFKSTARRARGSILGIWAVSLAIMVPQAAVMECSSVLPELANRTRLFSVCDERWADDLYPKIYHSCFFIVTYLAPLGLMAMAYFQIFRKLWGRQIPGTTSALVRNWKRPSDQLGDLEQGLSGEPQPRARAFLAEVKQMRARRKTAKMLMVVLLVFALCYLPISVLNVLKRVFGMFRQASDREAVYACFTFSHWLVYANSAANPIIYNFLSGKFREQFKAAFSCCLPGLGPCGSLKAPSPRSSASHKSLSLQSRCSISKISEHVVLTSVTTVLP
# CHO-K1 = assay: as §1, with “Homogeneous time resolved fluorescence (HTRF)-based” for “Fluorescence-based”, “cell-based” for “cell-based high throughput”, “CHO-K1” for “CHO”; format: functional; details: Cricetulus griseus;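 also: potency for inhibition of ATP-stimulated IP1 production as antagonists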
# [9] = molecular target: Broad substrate specificity ATP-binding cassette transporter ABCG2 (Homo sapiens, UniProt Q9UNQ0); assay: ABCG2 efflux pump inhibitors, dose response, Ig-MXP3 cells, flow cytometry (AID 1690); format: functional
# Sequence of Broad substrate specificity ATP-binding cassette transporter ABCG2 (Q9UNQ0 whole entry): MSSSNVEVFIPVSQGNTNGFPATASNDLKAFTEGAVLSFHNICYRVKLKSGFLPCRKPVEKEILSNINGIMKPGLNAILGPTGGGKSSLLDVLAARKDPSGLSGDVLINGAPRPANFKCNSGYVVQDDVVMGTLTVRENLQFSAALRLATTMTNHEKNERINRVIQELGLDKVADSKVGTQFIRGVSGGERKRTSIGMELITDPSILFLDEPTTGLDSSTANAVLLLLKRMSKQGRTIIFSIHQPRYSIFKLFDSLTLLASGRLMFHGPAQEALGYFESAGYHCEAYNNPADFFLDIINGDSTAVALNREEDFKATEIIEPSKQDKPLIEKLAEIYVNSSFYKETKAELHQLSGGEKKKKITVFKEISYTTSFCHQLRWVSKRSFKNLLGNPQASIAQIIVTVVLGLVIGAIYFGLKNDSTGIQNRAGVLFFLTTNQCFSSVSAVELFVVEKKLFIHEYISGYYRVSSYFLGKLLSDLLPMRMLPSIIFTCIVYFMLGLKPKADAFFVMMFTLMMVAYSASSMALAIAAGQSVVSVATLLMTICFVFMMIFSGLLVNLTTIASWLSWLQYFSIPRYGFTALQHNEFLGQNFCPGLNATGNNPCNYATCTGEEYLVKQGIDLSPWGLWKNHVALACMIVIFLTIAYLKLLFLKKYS
# [10] = molecular target: T2, Orexin/Hypocretin receptor type 1; assay: as §2, with “Homogeneous Time Resolved Fluorescence (HTRF)-based” for “Fluorescence-based”; format: functional
# Orexin receptor type 2 [11] = molecular target: T1, Orexin receptor type 2; assay: Counterscreen assay for antagonists of the orexin 1 receptor (OX1R; HCRTR1): Fluorescence-based cell-based dose response assay for antagonists of the orexin 2 receptor (OX2R; HCRTR2), run by assay provider.; format: functional
# [12] = molecular target: Disintegrin and metalloproteinase domain-containing protein 17 (Homo sapiens, UniProt P78536); assay: exosite inhibitors of ADAM17, dose response, biochemical (AID 743260)
# [13] = ADAM10 protease inhibitors, dose response, selectivity assay for ADAM17 exosite inhibitor project, biochemical, FRET peptide substrate, recombinant human ADAM10 (AID 743259);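 also: ADAM10 enzyme cleaving a FRET peptide substrate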
# Genome polyprotein = Genome polyprotein (dengue virus type 2, UniProt P29990); assay: Dengue-2 NS5 methyltransferase inhibitors, primary screen, biochemical, confirmation dose response (AID 588689); format: functional
# Sequence of Genome polyprotein (P29990 2492-3391 limits assumed): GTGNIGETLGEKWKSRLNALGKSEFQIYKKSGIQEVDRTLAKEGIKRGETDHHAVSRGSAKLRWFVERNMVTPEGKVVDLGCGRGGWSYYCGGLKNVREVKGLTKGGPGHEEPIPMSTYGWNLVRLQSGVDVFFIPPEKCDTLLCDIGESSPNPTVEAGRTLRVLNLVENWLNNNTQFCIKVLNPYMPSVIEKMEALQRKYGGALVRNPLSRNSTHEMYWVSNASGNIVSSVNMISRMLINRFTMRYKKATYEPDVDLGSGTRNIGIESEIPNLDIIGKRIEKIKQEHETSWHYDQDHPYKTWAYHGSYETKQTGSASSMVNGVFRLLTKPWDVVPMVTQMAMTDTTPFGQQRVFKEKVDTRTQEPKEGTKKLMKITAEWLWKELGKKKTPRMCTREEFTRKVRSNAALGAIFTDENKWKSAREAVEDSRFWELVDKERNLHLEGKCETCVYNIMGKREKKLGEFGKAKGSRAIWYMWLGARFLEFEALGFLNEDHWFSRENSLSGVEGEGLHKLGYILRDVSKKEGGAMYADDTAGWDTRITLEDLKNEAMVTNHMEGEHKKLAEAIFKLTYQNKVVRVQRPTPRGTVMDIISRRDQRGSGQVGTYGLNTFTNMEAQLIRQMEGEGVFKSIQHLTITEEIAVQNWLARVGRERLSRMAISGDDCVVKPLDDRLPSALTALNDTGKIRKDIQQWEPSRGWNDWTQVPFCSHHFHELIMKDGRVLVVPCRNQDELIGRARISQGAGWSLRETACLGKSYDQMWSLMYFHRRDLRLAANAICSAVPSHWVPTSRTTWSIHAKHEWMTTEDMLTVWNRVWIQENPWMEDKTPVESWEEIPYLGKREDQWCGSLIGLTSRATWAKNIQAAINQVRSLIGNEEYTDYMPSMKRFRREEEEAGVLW
# [14] = molecular target: T3, Replicative DNA helicase DnaB (Mycobacterium tuberculosis, UniProt P9WMR3); assay: DnaB intein splicing inhibitors, dose response, biochemical, cell-free fluorescence (AID 449749); format: functional
# T3 sequence (P9WMR3 whole entry): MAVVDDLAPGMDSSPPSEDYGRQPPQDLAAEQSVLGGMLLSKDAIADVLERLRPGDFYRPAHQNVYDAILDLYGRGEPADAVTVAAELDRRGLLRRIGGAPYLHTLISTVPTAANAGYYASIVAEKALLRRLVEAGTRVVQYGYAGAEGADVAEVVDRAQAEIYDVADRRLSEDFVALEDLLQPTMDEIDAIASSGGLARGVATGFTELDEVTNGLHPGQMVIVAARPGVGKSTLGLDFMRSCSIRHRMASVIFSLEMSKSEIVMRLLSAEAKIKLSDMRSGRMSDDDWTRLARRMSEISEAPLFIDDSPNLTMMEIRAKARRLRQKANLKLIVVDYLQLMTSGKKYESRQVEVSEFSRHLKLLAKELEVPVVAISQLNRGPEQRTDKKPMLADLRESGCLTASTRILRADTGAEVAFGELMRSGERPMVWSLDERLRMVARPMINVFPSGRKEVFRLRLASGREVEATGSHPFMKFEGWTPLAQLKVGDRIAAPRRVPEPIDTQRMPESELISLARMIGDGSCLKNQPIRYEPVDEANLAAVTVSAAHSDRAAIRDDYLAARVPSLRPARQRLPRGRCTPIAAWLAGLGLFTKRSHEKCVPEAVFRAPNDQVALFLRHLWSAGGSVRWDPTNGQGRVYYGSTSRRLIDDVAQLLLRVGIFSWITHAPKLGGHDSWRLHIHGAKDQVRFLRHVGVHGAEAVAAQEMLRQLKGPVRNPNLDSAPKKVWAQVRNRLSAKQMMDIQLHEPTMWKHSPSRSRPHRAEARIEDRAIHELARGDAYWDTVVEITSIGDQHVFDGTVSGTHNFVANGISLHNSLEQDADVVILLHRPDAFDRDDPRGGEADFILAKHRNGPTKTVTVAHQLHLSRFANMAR
# Protein RecA = molecular target: T4, Protein RecA (Mycobacterium tuberculosis, UniProt P9WHJ3); assay: Fluorescence Cell-Free Homogeneous Dose Retest to Identify Inhibitors of RecA-Intein Splicing Activity. [Related pubchem assays (depositor defined):AID2097, AID2223, AID489010, AID492950]; format: functional
# T4 sequence (P9WHJ3 whole entry): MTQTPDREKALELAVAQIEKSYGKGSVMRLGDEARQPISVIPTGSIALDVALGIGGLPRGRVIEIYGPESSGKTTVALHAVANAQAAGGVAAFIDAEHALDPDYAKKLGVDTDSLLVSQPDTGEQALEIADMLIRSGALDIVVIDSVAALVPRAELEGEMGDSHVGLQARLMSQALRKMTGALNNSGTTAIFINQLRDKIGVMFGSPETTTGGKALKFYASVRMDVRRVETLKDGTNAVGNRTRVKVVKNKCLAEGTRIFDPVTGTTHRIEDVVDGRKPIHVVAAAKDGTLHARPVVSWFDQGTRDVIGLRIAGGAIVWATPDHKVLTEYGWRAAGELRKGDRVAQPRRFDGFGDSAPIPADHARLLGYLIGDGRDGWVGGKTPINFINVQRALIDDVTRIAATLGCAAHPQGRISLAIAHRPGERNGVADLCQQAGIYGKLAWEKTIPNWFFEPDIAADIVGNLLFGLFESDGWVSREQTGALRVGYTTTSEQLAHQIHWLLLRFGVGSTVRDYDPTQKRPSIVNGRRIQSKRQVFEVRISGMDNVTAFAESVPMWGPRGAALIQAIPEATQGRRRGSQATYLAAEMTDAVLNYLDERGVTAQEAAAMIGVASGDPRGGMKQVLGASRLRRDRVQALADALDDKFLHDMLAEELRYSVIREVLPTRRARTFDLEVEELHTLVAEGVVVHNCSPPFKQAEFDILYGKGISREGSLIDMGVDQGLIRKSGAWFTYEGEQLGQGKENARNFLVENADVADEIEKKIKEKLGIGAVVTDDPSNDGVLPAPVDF
# [15] = molecular target: Histone-lysine N-methyltransferase NSD2 (Homo sapiens, UniProt O96028); format: biochemical
# Sequence of Histone-lysine N-methyltransferase NSD2 (O96028 whole entry): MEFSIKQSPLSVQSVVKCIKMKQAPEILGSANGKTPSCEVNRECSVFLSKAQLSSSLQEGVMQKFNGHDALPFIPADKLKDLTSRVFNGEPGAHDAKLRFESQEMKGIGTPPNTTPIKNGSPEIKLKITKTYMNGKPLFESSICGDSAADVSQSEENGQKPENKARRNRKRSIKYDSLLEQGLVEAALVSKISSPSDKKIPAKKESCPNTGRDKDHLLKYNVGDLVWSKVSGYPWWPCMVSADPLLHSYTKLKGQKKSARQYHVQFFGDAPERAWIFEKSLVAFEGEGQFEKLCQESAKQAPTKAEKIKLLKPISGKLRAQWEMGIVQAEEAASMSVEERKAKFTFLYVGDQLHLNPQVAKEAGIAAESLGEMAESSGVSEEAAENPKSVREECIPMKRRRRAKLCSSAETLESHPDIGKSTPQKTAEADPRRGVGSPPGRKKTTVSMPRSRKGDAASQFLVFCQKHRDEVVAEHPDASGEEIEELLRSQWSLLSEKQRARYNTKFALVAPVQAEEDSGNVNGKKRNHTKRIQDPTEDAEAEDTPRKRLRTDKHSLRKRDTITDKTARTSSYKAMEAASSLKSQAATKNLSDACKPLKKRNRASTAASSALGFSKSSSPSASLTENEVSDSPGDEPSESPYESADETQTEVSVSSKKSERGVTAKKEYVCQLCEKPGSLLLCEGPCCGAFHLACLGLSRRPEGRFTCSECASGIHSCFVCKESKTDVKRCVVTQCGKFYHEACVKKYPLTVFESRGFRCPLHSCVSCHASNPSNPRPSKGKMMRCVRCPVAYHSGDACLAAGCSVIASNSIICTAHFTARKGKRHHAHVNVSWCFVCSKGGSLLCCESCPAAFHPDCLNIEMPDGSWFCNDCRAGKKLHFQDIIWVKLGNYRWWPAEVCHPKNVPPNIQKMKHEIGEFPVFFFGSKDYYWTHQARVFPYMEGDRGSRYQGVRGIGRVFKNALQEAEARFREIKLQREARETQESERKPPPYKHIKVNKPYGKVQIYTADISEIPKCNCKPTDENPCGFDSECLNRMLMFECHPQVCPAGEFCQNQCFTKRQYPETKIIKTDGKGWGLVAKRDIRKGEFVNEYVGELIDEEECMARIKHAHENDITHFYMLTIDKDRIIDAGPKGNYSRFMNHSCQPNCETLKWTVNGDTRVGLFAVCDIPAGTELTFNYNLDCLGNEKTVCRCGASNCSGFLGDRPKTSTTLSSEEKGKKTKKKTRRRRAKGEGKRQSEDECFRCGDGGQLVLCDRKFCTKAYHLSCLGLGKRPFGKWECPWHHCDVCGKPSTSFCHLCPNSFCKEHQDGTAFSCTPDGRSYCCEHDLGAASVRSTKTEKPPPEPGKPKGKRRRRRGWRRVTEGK
# [16] = molecular target: T5, Apoptotic protease-activating factor 1 (Homo sapiens, UniProt O14727); format: functional
# T5 sequence (O14727 whole entry): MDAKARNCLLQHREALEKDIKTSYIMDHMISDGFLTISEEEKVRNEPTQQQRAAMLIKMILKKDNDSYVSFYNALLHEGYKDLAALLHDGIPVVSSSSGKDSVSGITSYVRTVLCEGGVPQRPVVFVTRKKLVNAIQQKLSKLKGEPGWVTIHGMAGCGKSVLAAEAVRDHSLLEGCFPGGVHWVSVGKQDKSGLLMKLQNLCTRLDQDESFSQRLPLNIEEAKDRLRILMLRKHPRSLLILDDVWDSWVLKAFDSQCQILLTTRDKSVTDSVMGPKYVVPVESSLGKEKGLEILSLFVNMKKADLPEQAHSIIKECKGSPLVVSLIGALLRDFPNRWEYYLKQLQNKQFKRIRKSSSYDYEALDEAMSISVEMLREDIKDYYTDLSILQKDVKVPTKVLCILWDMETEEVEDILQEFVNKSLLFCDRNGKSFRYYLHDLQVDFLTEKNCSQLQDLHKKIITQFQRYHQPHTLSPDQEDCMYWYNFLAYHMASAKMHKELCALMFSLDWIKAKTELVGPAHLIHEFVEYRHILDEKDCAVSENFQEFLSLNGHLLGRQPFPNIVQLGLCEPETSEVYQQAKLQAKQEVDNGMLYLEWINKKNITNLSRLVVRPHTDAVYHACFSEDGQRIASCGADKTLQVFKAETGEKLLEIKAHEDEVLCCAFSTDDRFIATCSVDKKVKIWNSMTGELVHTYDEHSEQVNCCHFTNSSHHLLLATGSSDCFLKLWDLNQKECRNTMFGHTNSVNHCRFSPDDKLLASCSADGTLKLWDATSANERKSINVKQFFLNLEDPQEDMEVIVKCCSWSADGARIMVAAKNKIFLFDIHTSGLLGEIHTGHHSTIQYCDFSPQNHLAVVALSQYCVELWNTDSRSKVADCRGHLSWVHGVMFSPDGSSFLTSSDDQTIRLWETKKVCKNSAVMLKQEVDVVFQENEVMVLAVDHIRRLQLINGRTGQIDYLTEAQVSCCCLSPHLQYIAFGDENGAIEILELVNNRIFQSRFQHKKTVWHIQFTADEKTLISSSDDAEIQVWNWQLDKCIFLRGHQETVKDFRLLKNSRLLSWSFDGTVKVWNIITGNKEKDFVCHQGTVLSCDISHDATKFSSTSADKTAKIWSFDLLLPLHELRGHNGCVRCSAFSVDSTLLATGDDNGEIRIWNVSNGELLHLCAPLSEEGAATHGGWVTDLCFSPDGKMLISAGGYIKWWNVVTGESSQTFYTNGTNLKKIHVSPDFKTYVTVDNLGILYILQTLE
compound,measurement,setting,value
Cc1cc(NC(=O)C(C)Sc2nc(-c3cccs3)nc3ccccc23)no1 (stereo not drawn),IC50,cells [1],> 138 µM (inactive)
same,IC50,Major prion protein,1.7 µM (active)
COc1ccc(C(=O)CSc2nnc(Cn3cnc4ccccc43)o2)cc1,IC50,Galanin receptor type 3,0.891 µM (active)
same,EC50,cells [2],> 29.9 µM (inactive)
CCN(CC)P(=O)(Nc1cccc(C(F)(F)F)c1)c1ccc(N(C)C)cc1NC(=O)c1ccco1 (stereo not drawn),IC50,Orexin receptor type 2 [3],> 50 µM (inactive)
same,EC50,[4],> 30 µM (not active)
same,EC50,[5],1.3 µM (active)
same,IC50,[6],> 49.8 µM (inactive)
same,EC50,[7],0.998 µM (active)
same,IC50,[8],2.29 µM (active)
same,IC50,CHO-K1,> 66.2 µM (inactive)
same,EC50,[9],2.29 µM (active)
same,IC50,[10],0.184 µM (active)
same,IC50,Orexin receptor type 2 [11],5 µM (active)
Cc1ccc(-n2c(C3CC3c3ccc(Cl)cc3)n[nH]c2=S)cc1 (stereo not drawn),IC50,[12],> 69.5 µM (inactive)
Cc1ccc(-n2c(S)nnc2C2CC2c2ccc(Cl)cc2)cc1 (stereo not drawn),IC50,[13],> 69.5 µM (inactive)
Cc1ccc(Cc2c(-c3ccco3)nc3c(C)cc(Br)cn23)cc1,IC50,cells [1],78.6 µM (inactive)
same,IC50,Major prion protein,9.95 µM (active)
CC(C)(C)c1ccc(S(=O)(=O)/N=C2\C=C(NS(=O)(=O)c3ccccc3)C(=O)c3ccccc32)cc1,IC50,Genome polyprotein,25.5 µM (active)
same,AC50,[14],4.68 µM (active)
same,EC50,Protein RecA,4.85 µM (active)
same,AC50,[15],3.73 µM (active)
same,IC50,[16],15 µM (active)
